In patent US10941136B2, “Quinazoline derivative or its salt and pharmaceutical composition comprising the same” (YUHAN CORPORATION, priority 2016, dated 2021):
pIC50: −log10 of the molar value.

Assays:
Type in all cases: biochemical
PI3Kδ (p110δ/p85α)(h) = biological target: T1, PI3Kδ (p110δ/p85α)(h) (Homo sapiens, UniProt O00329); assay: PI3K-HTRF in vitro enzyme assay, PI3Kδ; settings: enzyme 0.1 μg/ml
T1 construct: purchased Upstate (Millipore Co, Billerica, Mass., USA) #14˜604
Procedure: (§1) The compounds of the present invention were tested for the activity of phosphatidylinositol 3-kinase delta (PI3K) by using a PI3K enzyme-homogeneous time resolved fluorescence (PI3K-HTRF) kit, which is available under Upstate™ kit (Millipore Co, Billerica, Mass., USA). This kit system measures indirectly the amount of PIP3 produced via PI3K by detecting competitive inhibition of fluorescence complex formation.
(§2) There were used three kinds of buffer solutions, i.e., reaction buffer, stop solution, and detection solution. The reaction buffer was prepared by diluting Reaction Buffer (provided in Update™ kit) with distilled water 4 times and adding DTT to a concentration of 5 mM. The stop solution was prepared by combining STOP A and B Solutions (provided in Update™ kit) in a ratio of 3:1. The detection solution was prepared by combining Detection Solution A, B and C (provided in Update™ kit) in a ratio of 1:1:18. A substrate solution and an ATP solution were prepared by diluting the 1 mM PIP2 (phosphatidyl inositol 4,5 bi-phosphate) stock solution (provided in Update™ kit) and 10 mM ATP (Sigma-aldrich Co., St. Louis, Mo., USA) stock solution with the reaction buffer to concentrations of 20 μM and 40 μM, respectively. An enzyme solution was prepared by diluting PI3Kδ (#14˜604; Upstate™ kit) with the substrate solution to the concentration of 0.2 μg/ml (final reaction concentration: 0.1 μg/ml).
(§3) The test groups were prepared by dissolving each compound in 100% DMSO at 40× the final concentration and then diluting 10-fold with the reaction buffer. 5 μl of each diluted test group solution was transferred to a 384 well low flange white flat bottom microplate (#3572, Corning Life Sciences, Lowell, Mass., USA). We performed centrifuge (1 minute, 1000 rpm) and shaking for 2 minutes after every solution-adding step in this experiment. Next, 10 μl of the enzyme solution was added to each well. A mixed solution of the substrate solution (10 μl) plus 5 μl of the 100% DMSO diluted solution without test compound (i.e., 10% DMSO solution) was used as a negative control. And also, a mixed solution of enzyme solution (10 μl) plus 5 μl of the 100% DMSO diluted solution without test compound (i.e., 10% DMSO solution) was used as a positive control. This plate was pre-incubated for 10 minutes in a 25° C. incubator. After the pre-incubation, the phosphorylation reaction was induced by adding 5 μl of the ATP solution and the plate was incubated for 30 minutes in a 25° C. incubator. This enzyme reaction was stopped by 5 μl of the stop solution and then 5 μl of the detection solution was added thereto. To obtain enough fluorescence responses, the plate was incubated for 2 hours in a 25° C. incubator protected from light.
(§4) The time-resolved fluorescence resonance energy transfer (TR-FRET) rate was measured (emission wavelength: 665 nm, 620 nm, excitation wavelength: 313 nm) by using a Flexstation3 Micro plate reader (Molecular Devices, USA). TR-FRET Rate was calculated based on the Equation 1 and using these TR-FRET Rates, % inhibition rate of each compound was calculated based on the Equation 2. The IC50 values, i.e., the concentration of a test compound that inhibits 50% of PI3Kδ activity in vitro, are generated by Softmax program (Molecular Devices, USA). TR-FRET Rate=(Signal at 665 nm emission wavelength/Signal at 620 nm emission wavelength)×10000 <Equation 1> % Inhibition Rate=[(TR-FRET Rate of the test group−TR-FRET Rate of the positive control group)/(TR-FRET Rate of the negative control group−TR-FRET Rate of the positive control group)]×100 <Equation 2>

PI3Kα (p110α/p85α)(h) = biological target: T2, PI3Kα (p110α/p85α)(h) (Homo sapiens, UniProt P42336); assay: PI3K-HTRF in vitro enzyme assay, PI3Kα; settings: enzyme 0.1 μg/ml
T2 construct: purchased Upstate (Millipore Co) #14-602
T2 sequence (P42336 whole entry): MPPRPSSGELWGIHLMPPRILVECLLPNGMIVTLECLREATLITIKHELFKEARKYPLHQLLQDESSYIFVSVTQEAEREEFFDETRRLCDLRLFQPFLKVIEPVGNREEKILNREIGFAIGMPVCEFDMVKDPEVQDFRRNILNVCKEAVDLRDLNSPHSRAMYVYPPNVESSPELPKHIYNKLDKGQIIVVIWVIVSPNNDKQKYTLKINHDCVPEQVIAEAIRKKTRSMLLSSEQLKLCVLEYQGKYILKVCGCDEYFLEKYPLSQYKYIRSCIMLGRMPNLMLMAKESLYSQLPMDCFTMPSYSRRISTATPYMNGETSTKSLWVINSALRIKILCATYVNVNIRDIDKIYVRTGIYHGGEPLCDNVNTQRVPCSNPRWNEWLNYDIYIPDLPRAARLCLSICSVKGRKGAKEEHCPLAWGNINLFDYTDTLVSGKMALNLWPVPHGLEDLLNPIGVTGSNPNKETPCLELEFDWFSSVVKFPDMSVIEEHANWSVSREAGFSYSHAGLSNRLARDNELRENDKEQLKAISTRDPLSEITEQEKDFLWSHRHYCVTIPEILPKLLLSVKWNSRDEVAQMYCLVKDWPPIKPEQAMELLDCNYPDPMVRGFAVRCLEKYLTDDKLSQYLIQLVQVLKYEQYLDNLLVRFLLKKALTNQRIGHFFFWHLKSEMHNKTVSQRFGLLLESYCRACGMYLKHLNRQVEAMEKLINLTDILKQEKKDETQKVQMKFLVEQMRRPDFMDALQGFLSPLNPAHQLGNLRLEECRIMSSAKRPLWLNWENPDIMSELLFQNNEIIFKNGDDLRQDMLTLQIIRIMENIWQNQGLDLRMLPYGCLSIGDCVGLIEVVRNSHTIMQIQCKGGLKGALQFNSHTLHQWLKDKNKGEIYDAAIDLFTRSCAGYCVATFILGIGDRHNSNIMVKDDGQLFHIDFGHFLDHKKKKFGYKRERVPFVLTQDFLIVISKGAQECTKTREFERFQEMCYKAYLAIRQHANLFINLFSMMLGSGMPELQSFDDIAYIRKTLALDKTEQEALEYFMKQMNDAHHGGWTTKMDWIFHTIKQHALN
T2 sequence (P27986 whole entry partner): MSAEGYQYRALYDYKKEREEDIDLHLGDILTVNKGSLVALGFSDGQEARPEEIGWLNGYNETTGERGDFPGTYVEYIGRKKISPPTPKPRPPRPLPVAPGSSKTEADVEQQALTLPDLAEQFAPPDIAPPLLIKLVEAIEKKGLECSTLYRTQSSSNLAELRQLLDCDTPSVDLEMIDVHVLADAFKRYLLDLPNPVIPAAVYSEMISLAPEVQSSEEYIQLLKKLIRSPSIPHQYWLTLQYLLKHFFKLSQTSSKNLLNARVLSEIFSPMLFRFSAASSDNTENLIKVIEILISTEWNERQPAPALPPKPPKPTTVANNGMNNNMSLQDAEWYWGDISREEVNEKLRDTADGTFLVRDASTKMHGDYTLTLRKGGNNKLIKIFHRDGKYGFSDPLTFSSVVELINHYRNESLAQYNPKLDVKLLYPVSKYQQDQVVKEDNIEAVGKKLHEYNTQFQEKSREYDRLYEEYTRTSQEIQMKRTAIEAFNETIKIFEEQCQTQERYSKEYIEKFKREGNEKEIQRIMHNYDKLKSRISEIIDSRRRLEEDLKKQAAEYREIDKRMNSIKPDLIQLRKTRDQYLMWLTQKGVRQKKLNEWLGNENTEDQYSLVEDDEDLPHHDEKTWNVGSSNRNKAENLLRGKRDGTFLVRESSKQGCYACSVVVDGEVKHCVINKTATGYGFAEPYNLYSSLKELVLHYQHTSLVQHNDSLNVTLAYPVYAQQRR
Procedure: as §1, §2, §3, §4
(§5) The compounds of the present invention were assayed for the activities of PI3K subtypes, i.e., PI3Kα, PI3Kβ and PI3Kγ, using the same procedures as in Experimental Example 1. […]

PI3Kβ (p110β/p85α)(h) = biological target: T3, PI3Kβ (p110β/p85α)(h) (Homo sapiens, UniProt P42338); assay: PI3K-HTRF in vitro enzyme assay, PI3Kβ; settings: enzyme 0.4 μg/ml
T3 construct: purchased Upstate (Millipore Co) #14-603
T3 sequence (P42338 whole entry): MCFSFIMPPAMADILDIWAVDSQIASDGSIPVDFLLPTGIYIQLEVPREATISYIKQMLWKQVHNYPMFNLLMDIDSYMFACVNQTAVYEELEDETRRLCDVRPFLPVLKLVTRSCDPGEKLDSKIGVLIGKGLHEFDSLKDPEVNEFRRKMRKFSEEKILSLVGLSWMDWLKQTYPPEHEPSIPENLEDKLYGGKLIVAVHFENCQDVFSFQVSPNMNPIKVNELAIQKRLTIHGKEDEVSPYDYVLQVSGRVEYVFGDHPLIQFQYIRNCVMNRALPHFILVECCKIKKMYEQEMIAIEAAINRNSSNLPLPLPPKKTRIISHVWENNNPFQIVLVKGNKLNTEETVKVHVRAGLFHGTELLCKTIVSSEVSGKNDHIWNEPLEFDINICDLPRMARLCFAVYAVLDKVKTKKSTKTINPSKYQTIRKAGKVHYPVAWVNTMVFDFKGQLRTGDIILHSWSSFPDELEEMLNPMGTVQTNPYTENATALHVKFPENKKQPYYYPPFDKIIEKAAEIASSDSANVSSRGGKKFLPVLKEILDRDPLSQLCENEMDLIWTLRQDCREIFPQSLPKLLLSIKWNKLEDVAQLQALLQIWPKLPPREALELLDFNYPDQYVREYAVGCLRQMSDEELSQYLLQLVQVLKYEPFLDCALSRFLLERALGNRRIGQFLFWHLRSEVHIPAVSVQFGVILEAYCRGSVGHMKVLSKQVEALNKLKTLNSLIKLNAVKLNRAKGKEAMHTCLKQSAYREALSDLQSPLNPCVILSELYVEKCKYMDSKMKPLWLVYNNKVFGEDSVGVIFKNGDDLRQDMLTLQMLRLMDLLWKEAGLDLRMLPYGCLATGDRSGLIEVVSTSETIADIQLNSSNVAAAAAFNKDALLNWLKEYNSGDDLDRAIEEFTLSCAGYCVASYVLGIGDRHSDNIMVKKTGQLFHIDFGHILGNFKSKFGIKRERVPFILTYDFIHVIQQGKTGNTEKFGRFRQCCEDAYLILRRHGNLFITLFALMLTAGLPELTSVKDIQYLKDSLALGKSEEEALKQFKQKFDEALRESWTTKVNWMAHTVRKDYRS
T3 sequence (P27986 whole entry partner): as the sequence (P27986 whole entry partner) above
Procedure: as §1, §2, §3, §4, §5

PI3Kγ (p120γ)(h) = biological target: T4, PI3Kγ (p120γ)(h) (Homo sapiens, UniProt P48736); assay: PI3K-HTRF in vitro enzyme assay, PI3Kγ; settings: enzyme 0.4 μg/ml
T4 construct: purchased Upstate (Millipore Co) #14-558
T4 sequence (P48736 whole entry): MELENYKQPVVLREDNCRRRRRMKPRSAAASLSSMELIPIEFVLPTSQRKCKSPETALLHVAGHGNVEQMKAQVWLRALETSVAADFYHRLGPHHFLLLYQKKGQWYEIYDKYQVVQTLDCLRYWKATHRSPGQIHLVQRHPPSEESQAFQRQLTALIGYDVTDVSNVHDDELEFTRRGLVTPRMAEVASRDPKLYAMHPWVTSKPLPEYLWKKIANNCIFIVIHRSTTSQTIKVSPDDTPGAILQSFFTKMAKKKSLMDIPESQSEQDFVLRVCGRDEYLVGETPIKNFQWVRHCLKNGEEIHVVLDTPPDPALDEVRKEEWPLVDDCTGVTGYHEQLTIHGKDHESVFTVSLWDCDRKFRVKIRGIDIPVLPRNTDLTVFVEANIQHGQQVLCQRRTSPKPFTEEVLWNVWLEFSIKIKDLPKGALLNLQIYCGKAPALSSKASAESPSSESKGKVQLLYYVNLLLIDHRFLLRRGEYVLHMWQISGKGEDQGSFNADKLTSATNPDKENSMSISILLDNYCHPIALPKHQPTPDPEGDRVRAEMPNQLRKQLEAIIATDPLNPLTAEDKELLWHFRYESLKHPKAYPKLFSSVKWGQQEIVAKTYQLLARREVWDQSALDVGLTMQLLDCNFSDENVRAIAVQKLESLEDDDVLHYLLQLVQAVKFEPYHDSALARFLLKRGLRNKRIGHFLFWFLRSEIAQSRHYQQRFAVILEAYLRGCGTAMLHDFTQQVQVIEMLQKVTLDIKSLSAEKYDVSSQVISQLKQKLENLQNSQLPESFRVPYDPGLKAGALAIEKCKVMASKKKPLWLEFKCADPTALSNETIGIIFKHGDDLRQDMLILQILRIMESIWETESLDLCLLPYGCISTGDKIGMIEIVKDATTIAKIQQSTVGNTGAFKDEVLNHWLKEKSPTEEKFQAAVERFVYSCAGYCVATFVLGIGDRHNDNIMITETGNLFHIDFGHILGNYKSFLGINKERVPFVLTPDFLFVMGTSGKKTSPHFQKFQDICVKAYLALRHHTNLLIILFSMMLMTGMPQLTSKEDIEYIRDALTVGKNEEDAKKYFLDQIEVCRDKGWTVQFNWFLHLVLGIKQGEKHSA
Procedure: as §1, §2, §3, §4, §5

T1 sequence (O00329 whole entry): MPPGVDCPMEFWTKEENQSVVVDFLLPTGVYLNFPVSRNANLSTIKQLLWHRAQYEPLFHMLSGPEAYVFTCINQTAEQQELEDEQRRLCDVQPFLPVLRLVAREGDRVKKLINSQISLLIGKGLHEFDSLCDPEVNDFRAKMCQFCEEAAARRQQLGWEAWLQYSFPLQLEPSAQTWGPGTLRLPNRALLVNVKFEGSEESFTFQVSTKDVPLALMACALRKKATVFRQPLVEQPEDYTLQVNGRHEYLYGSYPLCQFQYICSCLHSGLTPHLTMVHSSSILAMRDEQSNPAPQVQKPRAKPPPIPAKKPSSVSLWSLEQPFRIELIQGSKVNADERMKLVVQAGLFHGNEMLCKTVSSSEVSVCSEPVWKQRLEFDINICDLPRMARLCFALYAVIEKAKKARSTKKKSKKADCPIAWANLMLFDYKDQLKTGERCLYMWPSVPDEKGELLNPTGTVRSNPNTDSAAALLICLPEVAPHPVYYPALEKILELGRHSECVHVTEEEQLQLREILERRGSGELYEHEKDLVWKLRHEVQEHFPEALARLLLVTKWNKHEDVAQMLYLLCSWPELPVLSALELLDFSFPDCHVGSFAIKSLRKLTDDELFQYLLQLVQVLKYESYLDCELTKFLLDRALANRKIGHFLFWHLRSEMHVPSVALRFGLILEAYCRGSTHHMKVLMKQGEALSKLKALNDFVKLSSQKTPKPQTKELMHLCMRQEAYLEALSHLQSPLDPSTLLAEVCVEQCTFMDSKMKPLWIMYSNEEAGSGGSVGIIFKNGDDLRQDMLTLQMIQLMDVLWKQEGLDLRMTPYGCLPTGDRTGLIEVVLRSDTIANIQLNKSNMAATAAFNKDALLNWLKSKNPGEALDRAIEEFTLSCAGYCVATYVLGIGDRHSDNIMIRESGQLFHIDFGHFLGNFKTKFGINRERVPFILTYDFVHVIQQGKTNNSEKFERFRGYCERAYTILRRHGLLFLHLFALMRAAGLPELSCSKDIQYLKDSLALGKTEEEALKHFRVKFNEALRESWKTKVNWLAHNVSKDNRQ
T1 sequence (P27986 whole entry partner): as the sequence (P27986 whole entry partner) above

| Compound | pIC50 (PI3Kδ (p110δ/p85α)(h)) | pIC50 (PI3Kα (p110α/p85α)(h)) | pIC50 (PI3Kβ (p110β/p85α)(h)) | pIC50 (PI3Kγ (p120γ)(h)) |
| --- | --- | --- | --- | --- |
| CCC[C@H](Nc1ncnc2ccc(C#N)cc12)c1nc2cccc(-c3cnc(C)nc3)c2c(=O)n1-c1ccccc1 [Example 9, (S)-4-((1-(5-(2-methylpyrimidin-5-yl)-4-oxo-3-phenyl-3,4-dihydroquinazolin-2-yl)butyl)amino)quinazoline-6-carbonitrile] | 7.74 | 5.55 |  | 5.94 |
| CCC[C@H](Nc1ncnc2ccc(C#N)cc12)c1nc2cccc(-c3cnc(OC)nc3)c2c(=O)n1-c1ccccc1 [Example 10, (S)-4-((1-(5-(2-methoxypyrimidin-5-yl)-4-oxo-3-phenyl-3,4-dihydroquinazolin-2-yl)butyl)amino)quinazoline-6-carbonitrile] | 7.77 | 5.47 | 5.12 | 6.33 |
| CCC[C@H](Nc1ncnc2ccc(C#N)cc12)c1nc2cccc(-c3cnc(OCC)nc3)c2c(=O)n1-c1ccccc1 [Example 11, (S)-4-((1-(5-(2-ethoxypyrimidin-5-yl)-4-oxo-3-phenyl-3,4-dihydroquinazolin-2-yl)butyl)amino)quinazoline-6-carbonitrile] | 7.80 | 5.32 | 5.05 | 6.36 |
| CC(C)[C@H](Nc1ncnc2ccc(C#N)cc12)c1nc2cccc(-c3cnc(N)nc3)c2c(=O)n1-c1ccccc1 [Example 13, (S)-4-((1-(5-(2-aminopyrimidin-5-yl)-4-oxo-3-phenyl-3,4-dihydroquinazolin-2-yl)-2-methylpropyl)amino)quinazoline-6-carbonitrile] | 7.62 | 5.83 |  | 5.54 |
| COc1ncc(-c2cccc3nc([C@@H](Nc4ncnc5ccc(C#N)cc45)C4CC4)n(-c4ccccc4)c(=O)c23)cn1 [Example 15, (S)-4-((cyclopropyl(5-(2-methoxypyrimidin-5-yl)-4-oxo-3-phenyl-3,4-dihydroquinazolin-2-yl)methyl)amino)quinazoline-6-carbonitrile] | 7.77 | 6.12 |  | 6.44 |
| C[C@H](Nc1ncnc2cccc(F)c12)c1nc2cccc(-c3cnc(N)nc3)c2c(=O)n1-c1ccccc1 [Example 23, (S)-5-(2-aminopyrimidin-5-yl)-2-(1-((5-fluoroquinazolin-4-yl)amino)ethyl)-3-phenylquinazolin-4(3H)-one] | 7.72 | 5.56 |  | 5.86 |
| CC[C@H](Nc1ncnc2cccc(F)c12)c1nc2cccc(-c3cncnc3)c2c(=O)n1-c1ccccc1 [Example 24, (S)-2-(1-((5-fluoroquinazolin-4-yl)amino)propyl)-3-phenyl-5-(pyrimidin-5-yl)quinazolin-4(3H)-one] | 7.77 | 5.09 |  | 5.37 |
| CC[C@H](Nc1ncnc2cccc(F)c12)c1nc2cccc(-c3cnc(F)nc3)c2c(=O)n1-c1ccccc1 [Example 26, (S)-5-(2-fluoropyrimidin-5-yl)-2-(1-((5-fluoroquinazolin-4-yl)amino)propyl)-3-phenylquinazolin-4(3H)-one] | 7.77 | 5.35 |  | 5.47 |
| CC[C@H](Nc1ncnc2cccc(F)c12)c1nc2cccc(-c3cnc(C)nc3)c2c(=O)n1-c1ccccc1 [Example 27, (S)-2-(1-((5-fluoroquinazolin-4-yl)amino)propyl)-5-(2-methylpyrimidin-5-yl)-3-phenylquinazolin-4(3H)-one] | 7.57 | 5.14 |  | 5.30 |
| O=c1c2c(-c3cncnc3)cccc2nc([C@@H](Nc2ncnc3cccc(F)c23)C2CC2)n1-c1ccccc1 [Example 30, (S)-2-(cyclopropyl((5-fluoroquinazolin-4-yl)amino)methyl)-3-phenyl-5-(pyrimidin-5-yl)quinazolin-4(3H)-one] | 7.72 | 5.28 |  | 5.58 |
| C[C@H](Nc1ncnc2cccc(F)c12)c1cc2cccc(-c3cnc(F)nc3)c2c(=O)n1-c1ccccc1 [Example 44, (S)-8-(2-fluoropyrimidin-5-yl)-3-(1-((5-fluoroquinazolin-4-yl)amino)ethyl)-2-phenylisoquinolin-1(2H)-one] | 7.74 | 5.25 |  | 5.70 |

Stronger by pIC50 (PI3Kδ (p110δ/p85α)(h)), values ahead:

| pIC50 (PI3Kδ (p110δ/p85α)(h)) | pIC50 (PI3Kα (p110α/p85α)(h)) | pIC50 (PI3Kβ (p110β/p85α)(h)) | pIC50 (PI3Kγ (p120γ)(h)) | Compound |
| --- | --- | --- | --- | --- |
| 7.89 | 5.70 |  | 5.12 | CC(C)[C@H](Nc1ncnc2cccc(F)c12)c1nc2cccc(-c3cnc(N)nc3)c2c(=O)n1-c1ccccc1 [Example 29, (S)-5-(2-aminopyrimidin-5-yl)-2-(1-((5-fluoroquinazolin-4-yl)amino)-2-methylpropyl)-3-phenylquinazolin-4(3H)-one] |
| 8.30 | 6.14 |  | 7.07 | Cc1ncc(-c2cccc3cc([C@H](C)Nc4ncnc5ccc(C#N)cc45)n(-c4ccccc4)c(=O)c23)cn1 [Example 36, (S)-4-((1-(8-(2-methylpyrimidin-5-yl)-1-oxo-2-phenyl-1,2-dihydroisoquinolin-3-yl)ethyl)amino)quinazoline-6-carbonitrile] |
| 8.40 | 6.22 | 5.17 | 6.93 | C[C@H](Nc1ncnc2ccc(C#N)cc12)c1nc2cccc(-c3cnc(N)nc3)c2c(=O)n1-c1ccccc1 [Example 2, (S)-4-((1-(5-(2-aminopyrimidin-5-yl)-4-oxo-3-phenyl-3,4-dihydroquinazolin-2-yl)ethyl)amino)quinazoline-6-carbonitrile] |
| 8.40 | 5.89 |  | 6.36 | CCOc1ncc(-c2cccc3nc([C@@H](Nc4ncnc5ccc(C#N)cc45)C4CC4)n(-c4ccccc4)c(=O)c23)cn1 [Example 16, (S)-4-((cyclopropyl(5-(2-ethoxypyrimidin-5-yl)-4-oxo-3-phenyl-3,4-dihydroquinazolin-2-yl)methyl)amino)quinazoline-6-carbonitrile] |
| 8.52 | 6.08 |  | 6.27 | N#Cc1ccc2ncnc(N[C@H](c3nc4cccc(-c5cncnc5)c4c(=O)n3-c3ccccc3)C3CC3)c2c1 [Example 14, (S)-4-((cyclopropyl(4-oxo-3-phenyl-5-(pyrimidin-5-yl)-3,4-dihydroquinazolin-2-yl)methyl)amino)quinazoline-6-carbonitrile] |
| 8.70 | 6.04 |  | 6.63 | CC[C@H](Nc1ncnc2ccc(C#N)cc12)c1cc2cccc(-c3cnc(OC)nc3)c2c(=O)n1-c1ccccc1 [Example 40, (S)-4-((1-(8-(2-methoxypyrimidin-5-yl)-1-oxo-2-phenyl-1,2-dihydroisoquinolin-3-yl)propyl)amino)quinazoline-6-carbonitrile] |
| 9.00 | 6.15 |  | 6.71 | CC[C@H](Nc1ncnc2ccc(C#N)cc12)c1cc2cccc(-c3cncnc3)c2c(=O)n1-c1ccccc1 [Example 39, (S)-4-((1-(1-oxo-2-phenyl-8-(pyrimidin-5-yl)-1,2-dihydroisoquinolin-3-yl)propyl)amino)quinazoline-6-carbonitrile] |
| 9.00 | 5.79 |  | 6.18 | CC[C@H](Nc1ncnc2ccc(C#N)cc12)c1cc2cccc(-c3cnc(C)nc3)c2c(=O)n1-c1ccccc1 [Example 42, (S)-4-((1-(8-(2-methylpyrimidin-5-yl)-1-oxo-2-phenyl-1,2-dihydroisoquinolin-3-yl)propyl)amino)quinazoline-6-carbonitrile] |
